These results are taken from patent US7820623B2 (priority 2006, dated 2010).

Experiment [1] relates to thapsigargin-induced IFN-g production in human whole blood. Type of experiment: cell-based.
The test system of experiment [2] is thapsigargin-induced IL-2 production in human whole blood.
Setting [3] is: read-out: Analogue Activity (IC50) WB/IFNg.
[4] abbreviates: read-out: Analogue Activity (IC50) WB/IL-2.

Like-named read-outs stand apart in the source and are kept apart here. Bridge positions count the residues as written; N and C are the ends. Square brackets hold non-standard residues; d marks the D form. Peptide text beside a SMILES is read from it. 1Nal = N[C@@H](Cc1cccc2ccccc12)C(=O)O

As for `CC[C@H](C)[C@@H]1NC(=O)[C@H](CCCCN)NC(=O)[C@@H](NC(=O)[C@H](CCCCN)NC(=O)[C@@H](NC(=O)[C@H](CC(N)=O)NC(=O)[C@@H](NC(=O)[C@@H](NC(=O)[C@@H](NC(=O)CN)C(C)C)[C@@H](C)CC)[C@@H](C)CC)C(C)C)CSSC[C@@H]2NC(=O)[C@H](CCCCN)NC(=O)CNC(=O)[C@H](Cc3ccccc3)NC(=O)[C@H](CCCNC(=N)N)NC(=O)[C@H](CCSC)NC(=O)CNC(=O)[C@H](C)NC(=O)[C@H](CCCCN)NC(=O)[C@H](CCCCN)NC(=O)[C@@H]3CSSC[C@@H](C(=O)N[C@H](C(=O)N4CCC[C@H]4C(=O)N[C@@H](CCCCN)C(=O)O)[C@@H](C)O)NC(=O)[C@H](Cc4c[nH]cn4)NC(=O)[C@H](CSSC[C@H](NC(=O)[C@H](CCC(N)=O)NC(=O)[C@H](CCCNC(=N)N)NC(=O)[C@H](CO)NC1=O)C(=O)N[C@@H](CC(C)C)C(=O)N[C@@H](CCC(=O)O)C(=O)N[C@@H](C)C(=O)N3)NC(=O)[C@H](CCCCN)NC(=O)CNC(=O)[C@H](CC(N)=O)NC(=O)[C@H](CCSC)NC2=O` [P17A] (H-GVIINVKCKISRQCLEACKKAGMRFGKCMNGKCHCTPK-OH; disulfide 8-28, 14-33, 18-35), the IC50 in experiment [1] (setting [3]) and in experiment [2] (setting [4]) was 0.173 nM in each case.
“GGGGS-Osk1 (GGGGSGVIINVKCKISRQCLEPCKKAGMRFGKCMNGKCHCTPK)”: the IC50 was found to be 2.2 nM in experiment [1] (read-out: WB/IFNg (IC50)) and 1.36 nM in experiment [2] (read-out: WB/IL-2 (IC50)).
Regarding `CC[C@H](C)[C@@H]1NC(=O)[C@H](CCCCN)NC(=O)[C@@H](NC(=O)[C@H](CCCCN)NC(=O)[C@@H](NC(=O)[C@H](CC(N)=O)NC(=O)[C@H](C)NC(=O)[C@@H](NC(=O)[C@@H](NC(=O)CN)C(C)C)[C@@H](C)CC)C(C)C)CSSC[C@@H]2NC(=O)[C@H](CCCCN)NC(=O)CNC(=O)[C@H](Cc3ccccc3)NC(=O)[C@H](CCCNC(=N)N)NC(=O)[C@H](CCSC)NC(=O)CNC(=O)[C@H](C)NC(=O)[C@H](CCCCN)NC(=O)[C@H](CCCCN)NC(=O)[C@@H]3CSSC[C@@H](C(=O)N[C@H](C(=O)N4CCC[C@H]4C(=O)N[C@@H](CCCCN)C(=O)O)[C@@H](C)O)NC(=O)[C@H](Cc4c[nH]cn4)NC(=O)[C@H](CSSC[C@H](NC(=O)[C@H](CCC(N)=O)NC(=O)[C@H](CCCNC(=N)N)NC(=O)[C@H](CO)NC1=O)C(=O)N[C@@H](CC(C)C)C(=O)N[C@@H](CCC(=O)O)C(=O)N1CCC[C@H]1C(=O)N3)NC(=O)[C@H](CCCCN)NC(=O)CNC(=O)[C@H](CC(N)=O)NC(=O)[C@H](CCSC)NC2=O` [I4A] (H-GVIANVKCKISRQCLEPCKKAGMRFGKCMNGKCHCTPK-OH; disulfide 8-28, 14-33, 18-35), the IC50 in experiment [1] (setting [3]) was found to be 0.0873 nM; in experiment [2] (setting [4]), 0.111 nM.
`CC[C@H](C)[C@@H]1NC(=O)[C@H](CCCCN)NC(=O)[C@@H](NC(=O)[C@H](CCCCN)NC(=O)[C@@H](NC(=O)[C@H](CC(N)=O)NC(=O)[C@@H](NC(=O)[C@@H](NC(=O)[C@@H](NC(=O)CN)C(C)C)[C@@H](C)CC)[C@@H](C)CC)C(C)C)CSSC[C@@H]2NC(=O)[C@H](CCCCN)NC(=O)CNC(=O)[C@H](Cc3ccccc3)NC(=O)[C@H](CCCNC(=N)N)NC(=O)[C@H](CCSC)NC(=O)CNC(=O)[C@H](C)NC(=O)[C@H](CCCCN)NC(=O)[C@H](CCCCN)NC(=O)[C@@H]3CSSC[C@@H](C(=O)N[C@H](C(=O)N4CCC[C@H]4C(=O)N[C@@H](CCCNC(=N)N)C(=O)O)[C@@H](C)O)NC(=O)[C@H](Cc4c[nH]cn4)NC(=O)[C@H](CSSC[C@H](NC(=O)[C@H](CCC(N)=O)NC(=O)[C@H](CCCNC(=N)N)NC(=O)[C@H](CO)NC1=O)C(=O)N[C@@H](CC(C)C)C(=O)N[C@@H](CCC(=O)O)C(=O)N1CCC[C@H]1C(=O)N3)NC(=O)[C@H](CCCCN)NC(=O)CNC(=O)[C@H](CC(N)=O)NC(=O)[C@H](CCSC)NC2=O` [K38R] (H-GVIINVKCKISRQCLEPCKKAGMRFGKCMNGKCHCTPR-OH; disulfide 8-28, 14-33, 18-35): the IC50 came to 0.04 nM in experiment [1] (setting [3]) and 0.039 nM in experiment [2] (setting [4]).
With “GVIINVKCKISRQCAEPCKKAGMRFGKCMNGKCHCTPK [Ala-15 (SEQ ID No: 1412)]”, the IC50 in experiment [1] (read-out: Average IC50 IFNg) and in experiment [2] (read-out: Average IC50 IL-2) was 0.107 nM each time.
As for `CC[C@H](C)[C@@H]1NC(=O)[C@H](CCCCN)NC(=O)[C@@H](NC(=O)[C@H](CCCCN)NC(=O)[C@@H](NC(=O)[C@H](CC(N)=O)NC(=O)[C@@H](NC(=O)[C@@H](NC(=O)[C@H](CCCNC(=N)N)NC(=O)CN)[C@@H](C)CC)[C@@H](C)CC)C(C)C)CSSC[C@@H]2NC(=O)[C@H](CCCCN)NC(=O)CNC(=O)[C@H](Cc3ccccc3)NC(=O)[C@H](CCCNC(=N)N)NC(=O)[C@H](CCSC)NC(=O)CNC(=O)[C@H](C)NC(=O)[C@H](CCCCN)NC(=O)[C@H](CCCCN)NC(=O)[C@@H]3CSSC[C@@H](C(=O)N[C@H](C(=O)N4CCC[C@H]4C(=O)N[C@@H](CCCCN)C(=O)O)[C@@H](C)O)NC(=O)[C@H](Cc4c[nH]cn4)NC(=O)[C@H](CSSC[C@H](NC(=O)[C@H](CCC(N)=O)NC(=O)[C@H](CCCNC(=N)N)NC(=O)[C@H](CO)NC1=O)C(=O)N[C@@H](CC(C)C)C(=O)N[C@@H](CCC(=O)O)C(=O)N1CCC[C@H]1C(=O)N3)NC(=O)[C@H](CCCCN)NC(=O)CNC(=O)[C@H](CC(N)=O)NC(=O)[C@H](CCSC)NC2=O` [V2R] (H-GRIINVKCKISRQCLEPCKKAGMRFGKCMNGKCHCTPK-OH; disulfide 8-28, 14-33, 18-35), the IC50 came out at 0.986 nM in experiment [1] (setting [3]) and 0.775 nM in experiment [2] (setting [4]).
For “GVIANVKCKISRQCLEPCKKAGMRFGKCMNGKCHCTPK [Ala-4 (SEQ ID No: 1403)]”, the IC50 in experiment [1] (read-out: Average IC50 IFNg) was 0.0873 nM; in experiment [2] (read-out: Average IC50 IL-2), 0.111 nM.
For “GVIINVKCKISRQCLEPCKKAGMRFGKCMNGKCACTPK [Ala-34 (SEQ ID No: 1428)]” the same measures were 0.0573 nM and 0.0725 nM.
On to `CC[C@H](C)[C@@H]1NC(=O)[C@H](CCCCN)NC(=O)[C@@H](NC(=O)[C@H](CCCCN)NC(=O)[C@H](CCCNC(=N)N)NC(=O)[C@H](CC(N)=O)NC(=O)[C@@H](NC(=O)[C@@H](NC(=O)[C@@H](NC(=O)CN)C(C)C)[C@@H](C)CC)[C@@H](C)CC)CSSC[C@@H]2NC(=O)[C@H](CCCCN)NC(=O)CNC(=O)[C@H](Cc3ccccc3)NC(=O)[C@H](CCCNC(=N)N)NC(=O)[C@H](CCSC)NC(=O)CNC(=O)[C@H](C)NC(=O)[C@H](CCCCN)NC(=O)[C@H](CCCCN)NC(=O)[C@@H]3CSSC[C@@H](C(=O)N[C@H](C(=O)N4CCC[C@H]4C(=O)N[C@@H](CCCCN)C(=O)O)[C@@H](C)O)NC(=O)[C@H](Cc4c[nH]cn4)NC(=O)[C@H](CSSC[C@H](NC(=O)[C@H](CCC(N)=O)NC(=O)[C@H](CCCNC(=N)N)NC(=O)[C@H](CO)NC1=O)C(=O)N[C@@H](CC(C)C)C(=O)N[C@@H](CCC(=O)O)C(=O)N1CCC[C@H]1C(=O)N3)NC(=O)[C@H](CCCCN)NC(=O)CNC(=O)[C@H](CC(N)=O)NC(=O)[C@H](CCSC)NC2=O` [V6R] (H-GVIINRKCKISRQCLEPCKKAGMRFGKCMNGKCHCTPK-OH; disulfide 8-28, 14-33, 18-35), for which the IC50 in experiment [1] (setting [3]) stood at 0.115 nM; in experiment [2] (setting [4]), 0.084 nM.
In the case of `CC[C@H](C)[C@@H]1NC(=O)[C@H](CCCCN)NC(=O)[C@@H](NC(=O)[C@H](CCCCN)NC(=O)[C@@H](NC(=O)[C@H](CC(N)=O)NC(=O)[C@@H](NC(=O)[C@@H](NC(=O)[C@@H](NC(=O)CN)C(C)C)[C@@H](C)CC)[C@@H](C)CC)C(C)C)CSSC[C@@H]2NC(=O)[C@H](CCCCN)NC(=O)CNC(=O)[C@H](Cc3ccccc3)NC(=O)[C@H](CCCNC(=N)N)NC(=O)[C@H](CCSC)NC(=O)CNC(=O)[C@H](C)NC(=O)[C@H](CCCCN)NC(=O)[C@H](CCCCN)NC(=O)[C@@H]3CSSC[C@@H](C(=O)N[C@H](C(=O)N4CCC[C@H]4C(=O)N[C@@H](CCCCN)C(=O)O)[C@@H](C)O)NC(=O)[C@H](Cc4c[nH]cn4)NC(=O)[C@H](CSSC[C@H](NC(=O)[C@H](CCC(N)=O)NC(=O)[C@H](CCCNC(=N)N)NC(=O)[C@H](CO)NC1=O)C(=O)N[C@@H](CC(C)C)C(=O)N[C@@H](CCC(=O)O)C(=O)N1CCC[C@H]1C(=O)N3)NC(=O)[C@H](CCCNC(=N)N)NC(=O)CNC(=O)[C@H](CC(N)=O)NC(=O)[C@H](CCSC)NC2=O` [K32R] (H-GVIINVKCKISRQCLEPCKKAGMRFGKCMNGRCHCTPK-OH; disulfide 8-28, 14-33, 18-35), the IC50 in experiment [1] (setting [3]) worked out at 0.034 nM; in experiment [2] (setting [4]), 0.028 nM.
`CC[C@H](C)[C@@H]1NC(=O)[C@H](CCCCN)NC(=O)[C@@H](NC(=O)[C@H](CCCCN)NC(=O)[C@@H](NC(=O)[C@H](CC(N)=O)NC(=O)[C@@H](NC(=O)[C@@H](NC(=O)[C@@H](NC(=O)CN)C(C)C)[C@@H](C)CC)[C@@H](C)CC)C(C)C)CSSC[C@@H]2NC(=O)[C@H](CCCCN)NC(=O)CNC(=O)[C@H](Cc3ccccc3)NC(=O)[C@H](Cc3cccc4ccccc34)NC(=O)[C@H](CCSC)NC(=O)CNC(=O)[C@H](C)NC(=O)[C@H](CCCCN)NC(=O)[C@H](CCCCN)NC(=O)[C@@H]3CSSC[C@@H](C(=O)N[C@H](C(=O)N4CCC[C@H]4C(=O)N[C@@H](CCCCN)C(=O)O)[C@@H](C)O)NC(=O)[C@H](Cc4c[nH]cn4)NC(=O)[C@H](CSSC[C@H](NC(=O)[C@H](CCC(N)=O)NC(=O)[C@H](CCCNC(=N)N)NC(=O)[C@H](CO)NC1=O)C(=O)N[C@@H](CC(C)C)C(=O)N[C@@H](CCC(=O)O)C(=O)N1CCC[C@H]1C(=O)N3)NC(=O)[C@H](CCCCN)NC(=O)CNC(=O)[C@H](CC(N)=O)NC(=O)[C@H](CCSC)NC2=O` [R24Nal] (H-GVIINVKCKISRQCLEPCKKAGM[1Nal]FGKCMNGKCHCTPK-OH; disulfide 8-28, 14-33, 18-35): the values for the IC50 in experiment [1] (setting [3]) and in experiment [2] (setting [4]) were 0.818 nM and 0.293 nM, respectively.
